Source: patent US12493040B2, “Cancer detection method using sense of smell of nematode” (HIROTSU BIO SCIENCE INC., priority 2013, dated 2025)

Test system: RNAi-treated eri-1 (mg366) nematodes
Experiment: RNAi screening of olfactory receptor genes: chemotaxis assay of RNAi-treated nematodes to odorants
Type: in vivo, Caenorhabditis elegans
Details: repellent or high concentration of attractant
Method: The RNAi assay was carried out by performing an RNAi method involving the feeding (feeding RNAi method) of eri-1 (mg366) (19), using an Ahringer library (37).
Nine adult eri-1 mutants were placed on an NGM plate containing isopropyl 1-D-1-thiogalactopyranoside (0.19 g/L), ampicillin (60 mg/L), and Escherichia coli (E. coli), and were then cultured for 4 days. Subsequently, the adult worms were used in a chemotaxis assay. The chemotaxis assay was carried out as previously reported (6, 17). In the chemotaxis assay, the present inventor has used 30 to 50 worms in each experiment in which 1 μl of 10^−3- or 10^−4-diluted odorant (low concentration), or 1 and 5 μl of undiluted odorants (high concentration) were used.
The z score and a control value in each single test from 2SD were calculated in all days (Table 3) or every day. The z score was used as a threshold indicating a great difference (−1.96 and 1.96, P<0.05). […] Accordingly, the present inventor has used the z score±1 (−0.96 and 0.96, P<0.33) as a weaker threshold.

- chemotaxis index (Control nematodes): −0.84 ± 0.011
- chemotaxis index (srh-4 RNAi-treated nematodes): −0.73
- chemotaxis index (srh-7 RNAi-treated nematodes): −0.86
- chemotaxis index (srh-8 RNAi-treated nematodes): −0.94
- chemotaxis index (srh-10 RNAi-treated nematodes): −0.96
- chemotaxis index (srh-11 RNAi-treated nematodes): −0.79
- chemotaxis index (srh-15 RNAi-treated nematodes): −0.60
- chemotaxis index (srh-16 RNAi-treated nematodes): −0.74
- chemotaxis index (srh-18 RNAi-treated nematodes): −0.78
- chemotaxis index (srh-19 RNAi-treated nematodes): −0.89
- chemotaxis index (srh-22 RNAi-treated nematodes): −0.81
- chemotaxis index (srh-23 RNAi-treated nematodes): −0.88
- chemotaxis index (srh-24 RNAi-treated nematodes): −1.00
- chemotaxis index (srh-25 RNAi-treated nematodes): 0.13
- chemotaxis index (srh-27 RNAi-treated nematodes): −0.92
- chemotaxis index (srh-28 RNAi-treated nematodes): −0.64
- chemotaxis index (srh-36 RNAi-treated nematodes): −0.59
- chemotaxis index (srh-37 RNAi-treated nematodes): −0.69
- chemotaxis index (srh-39 RNAi-treated nematodes): −0.79
- chemotaxis index (srh-40 RNAi-treated nematodes): −0.88
- chemotaxis index (srh-41 RNAi-treated nematodes): −0.56
- chemotaxis index (srh-44 RNAi-treated nematodes): 0.00
- chemotaxis index (srh-45 RNAi-treated nematodes): −0.97
- chemotaxis index (srh-46 RNAi-treated nematodes): −0.91
- chemotaxis index (srh-48 RNAi-treated nematodes): −0.67
- chemotaxis index (srh-49 RNAi-treated nematodes): −0.59
- chemotaxis index (srh-50 RNAi-treated nematodes): −0.93
- chemotaxis index (srh-51 RNAi-treated nematodes): −0.85
- chemotaxis index (srh-52 RNAi-treated nematodes): −0.96
- chemotaxis index (srh-55 RNAi-treated nematodes): −0.95
- chemotaxis index (srh-59 RNAi-treated nematodes): −0.87
- chemotaxis index (srh-60 RNAi-treated nematodes): −0.77
- chemotaxis index (srh-61 RNAi-treated nematodes): −0.82
- chemotaxis index (srh-67 RNAi-treated nematodes): −0.96
- chemotaxis index (srh-68 RNAi-treated nematodes): −0.67
- chemotaxis index (srh-69 RNAi-treated nematodes): −0.94
- chemotaxis index (srh-70 RNAi-treated nematodes): −0.40
- chemotaxis index (srh-71 RNAi-treated nematodes): −0.76
- chemotaxis index (srh-72 RNAi-treated nematodes): −0.55
- chemotaxis index (srh-74 RNAi-treated nematodes): −0.51
- chemotaxis index (srh-75 RNAi-treated nematodes): −0.50
- chemotaxis index (srh-77 RNAi-treated nematodes): −0.68
- chemotaxis index (srh-79 RNAi-treated nematodes): −0.22
- chemotaxis index (srh-80 RNAi-treated nematodes): −0.31
- chemotaxis index (srh-82 RNAi-treated nematodes): −0.53
- chemotaxis index (srh-83 RNAi-treated nematodes): 0.34
- chemotaxis index (srh-97 RNAi-treated nematodes): −0.51
- chemotaxis index (srh-99 RNAi-treated nematodes): −0.33
- chemotaxis index (srh-100 RNAi-treated nematodes): −0.64
- chemotaxis index (srh-104 RNAi-treated nematodes): −0.48
- chemotaxis index (srh-105 RNAi-treated nematodes): −0.76
- chemotaxis index (srh-109 RNAi-treated nematodes): −0.68
- chemotaxis index (srh-111 RNAi-treated nematodes): −0.08
Compound: CC(C)CCO [High Iaa]
